The source of these data is publication PMC5789597, “Cytotoxicity of seputhecarpan D, thonningiol and 12 other phytochemicals from African flora towards human carcinoma cells” (BMC Complementary and Alternative Medicine, 2018).

Series [1] deals with MCF-7 cells. Briefly: Cell cycle analysis and detection of apoptosis by flow cytometry. In kind it is cell-based, human. As to conditions: for percentages of cells in sub-G0/G1 phase: MCF-7, 2 × IC50 (as printed in text); for percentages of cells in sub-G0/G1 phase / Growth (percentage of control) Sub-G0; percentage of cells in sub-G0/G1 phase: non-treated cells 3.1%; for Growth (percentage of control) Sub-G0; percentage of cells in sub-G0/G1 phase: MCF-7, 72 h, ¼ x IC50; for cell cycle arrest (phase): MCF-7 cells, 72 h. The method, then:
Cells were tested in 6-well plates (3 mL, 1 × 10^5 cells/mL) and the incubation time was 72 h in humidified 5% CO2 atmosphere at 37 °C. […] Untreated cells (control) were used for comparison with treated cells. The BD FACS Aria I Cell Sorter Flow Cytometer (Becton-Dickinson, Germany) was then used for cell cycle analysis. For each sample, 10^4 cells were counted. For PI excitation, an argon-ion laser emitting at 488 nm was used. Cytographs were analyzed using BD FACSDiva™ Flow Cytometry Software Version 6.1.2 (Becton-Dickinson).
For orientation: In flow cytometry, cells or beads pass a laser one at a time.

The subject of series [2] is Caco-2 colorectal adenocarcinoma cells. Briefly: Neutral red (NR) uptake cytotoxicity assay, Caco-2. As to conditions: read-out: IC50 values, Caco-2.
Text: (§3) Four human carcinoma cell lines and one normal cell line were used. They were: DLD-1 and Caco-2 colorectal adenocarcinoma cell lines, HepG2 hepatocarcinoma cells, MCF-7 breast adenocarcinoma cells and the normal CRL2120 human skin fibroblasts. Caco-2 cells (from the ŞAP Institute of Ankara,Turkey andMCF-7 cells (from ATCC) provided by Prof. Dr. Tansu Koparal (Anadolu University, Eskisehir, Turkey),HepG2, DLD-1 and CRL2120 cells were obtained from American Type Culture Collection (ATCC); DMEM medium (Sigma-aldrich, Munich, Germany) was used to maintain cells as a monolayer and was supplemented with 10% fetal calf serum and 1% penicillin (100 U/mL)-streptomycin (100 μg/mL) in a humidified 5% CO2 atmosphere at 37 °C.
(§4) Dimethylsufoxide (DMSO) at less than 0.1% final concentration was used to dilute the tested samples. DMSO at 0.1% was used as solvent control. The incubation time was 72 h incubation in humidified 5% CO2 atmosphere at 37 °C, followed by NR coloration as previously described [23, 24]. ELx 808 Ultra Microplate Reader (Biotek) equipped with a 540 nm filter was used to measure the absorbance. Each experiment was performed at least three times, with three replicates each. The viability was evaluated based on a comparison with untreated cells. The IC50 values represented the sample’s concentrations required to inhibit 50% of cell proliferation and were calculated from a calibration curve by linear regression using Microsoft Excel [26] as follows: for each sample, the cell growth percentages at the different concentrations were used to draw the calibration curve with logarithmic regression obtained by 2 measuring points (one smaller and one larger than 50%) from where the IC50 value was deduced.
Series [3] concerns MCF-7 cells. Briefly: Reactive oxygen species production (H2DCFH-DA). In kind it is cell-based, human. As to conditions: MCF-7, 24 h, at IC50, compared to non-treated cells. The method, then: Cells were tested in 6-well plates (3 mL, 1 × 10^5 cells/mL) and the incubation time was 24 h in humidified 5% CO2 atmosphere at 37 °C. The tested concentrations were ¼ × IC50, ½ × IC50 and IC50. Untreated cells (control) were used for comparison with treated cells. The fluorescence was measured using SpectraMax® M5 Microplate Reader (Molecular Devices, Biberach, Germany) at 480/530 nm. All experiments were performed at least in triplicates.

The subject of series [4] is DLD-1 colorectal adenocarcinoma cells. Briefly: Neutral red (NR) uptake cytotoxicity assay, DLD-1. It counts as cell-based, human. As to conditions: for IC50: Homo sapiens, DLD-1, NR assay, 72 h incubation; for selectivity index, DLD-1: IC50 in CRL2120 normal fibroblasts divided by IC50 in DLD-1. An excerpt:
(§1) DMSO at 0.1% was used as solvent control.

Series [5] deals with MCF-7 cells. The series can be described thus: Integrity of mitochondrial membrane potential (JC-1 staining, flow cytometry). As to conditions: MCF-7, 72 h, IC50; control 6.0%. In kind it is cell-based, human. The method, then:
Cells were tested in 6-well plates (3 mL, 1 × 10^5 cells/mL) and the incubation time was 72 h in humidified 5% CO2 atmosphere at 37 °C. The tested concentrations were ¼ × IC50, ½ × IC50 and IC50. Untreated cells (control) were used for comparison with treated cells. JC-1 staining was performed according to the manufacturer’s protocol as reported previously. Cells were then measured in a BD FACS Aria I Cell Sorter Flow Cytometer (Becton-Dickinson, Germany). The JC-1 signal was measured at an excitation wavelength of 561 nm (150 mW) and detected using a 586/15 nm band-pass filter. The signal was analyzed at an excitation wavelength of 640 nm (40 mW) and detected using a 730/45 nm bandpass filter. Cytographs were analyzed using BD FACSDiva™ Flow Cytometry Software Version 6.1.2 (Becton-Dickinson). All experiments were performed at least in triplicates.

For series [6], the system named is MCF-7 breast adenocarcinoma cells. Briefly: Neutral red (NR) uptake cytotoxicity assay, MCF7. It counts as cell-based, human. As to conditions: for IC50: Homo sapiens, MCF7, NR assay, 72 h incubation; for selectivity index, MCF7: IC50 in CRL2120 normal fibroblasts divided by IC50 in MCF7.
Text: as §1

Another series deals with caspase 9 in MCF-7 cells. The series can be described thus: Caspase-Glo 9 assay. It counts as cell-based, human. As to conditions: MCF-7, 6 h, optimal activity generally at IC50, vs untreated control. An excerpt:
(§2) The BioTek Synergy™ HT multi-detection microplate reader was used to measure the luminescence and Caspase activity was expressed as percentage of the untreated control.

In series [7] the test system is HepG2 hepatocarcinoma cells. Briefly: Neutral red (NR) uptake cytotoxicity assay, HepG2. It counts as cell-based, human. Particulars: for IC50: Homo sapiens, HepG2, NR assay, 72 h incubation; for selectivity index, HepG2: IC50 in CRL2120 normal fibroblasts divided by IC50 in HepG2.
Text: as §1

Series [8] relates to normal CRL2120 human skin fibroblasts. The series can be described thus: Neutral red (NR) uptake cytotoxicity assay, normal fibroblasts. It counts as cell-based. As to conditions: Skin fibroblast, 72 h incubation.
Text: as §1

A short description of a further series: in vitro. Particulars: human, Caco-2.
Series [9] has as its system four tested cancer cell lines (MCF-7, DLD-1, Caco-2, HepG2). The series can be described thus: Neutral red (NR) uptake cytotoxicity assay, summary over the four tested cancer cell lines. It counts as cell-based. As to conditions: Homo sapiens.
Text: as §1

The subject of series [10] is caspases 3/7 in MCF-7 cells. Briefly: Caspase-Glo 3/7 assay. In kind it is cell-based, human. Particulars: MCF-7, 6 h, optimal activity generally at IC50, vs untreated control.
Text: as §2

Series [11] in a line: Neutral red (NR) uptake cytotoxicity assay, Caco-2. As to conditions: human, Caco-2.
Text: as §3, §4
Where [12] appears, read: all 4/4 tested cancer cell lines, read-out: IC50 values against the four tested cancer cell lines.

Like-named read-outs stand apart in the source and are kept apart here.

Text for in vitro: as §3, §4

With `COc1cccc2c1C(=O)c1c(O)c3c(c(O)c1C2=O)C[C@@](O)(C(=O)CO)C[C@@H]3O[C@H]1C[C@H](N)[C@H](O)[C@H](C)O1` [Doxorubicin, doxorubicin, reference compound], the “percentages of cells in sub-G0/G1 phase” value in the series on MCF-7 cells [1] is on record as 60%. In addition, the “Growth (percentage of control) Sub-G0; percentage of cells in sub-G0/G1 phase” value (“Growth (percentage of control) Sub-G0” for short) in the series on MCF-7 cells [1] is recorded as 27.6%. Also, the IC50 in series [2] (NR assay, 72 h incubation) was 0.72 ± 0.13 µM; in series [4], 0.37 ± 0.05 µM; in [6] it was 0.35 ± 0.05 µM; in [7], 0.18 ± 0.03 µM; in [8], 0.59 ± 0.01 µM. The “increase in ROS levels” value in the series on MCF-7 cells [3] is recorded as 2.40 fold. Also, in the series on MCF-7 cells [5], the “P2: cells with altered MMP (MMP depletion)” value (from here on “P2: cells with altered MMP”) was “up to 26.0%”. Moreover, the “increase of caspase 9 activity” value with caspase 9 in MCF-7 cells was determined as 1.3 fold.
Take `C=C(C)[C@@H]1CC[C@@]2(C)C1C1CCC3[C@@]4(C)CC[C@H](O)C(C)(C)C4CC[C@@]3(C)[C@]1(C)C[C@@H]2O` (stereo partly drawn) [Compound 3, 16β-hydroxylupeol]: the selectivity ratio at 72 h in the series “in vitro” is 2.53. The IC50 in series [2] (Homo sapiens, Caco-2, 72 h) is 20.8 ± 1.53 µM; in [9] (setting [12]), below 85 µM; in series [4] it was 15.4 ± 0.96 µM; in [6], 9.12 ± 1.02 µM; in series [7], 35.6 ± 3.29 µM; in series [8], 52.6 ± 5.11 µM. Also, the “selectivity index, DLD-1” value in series [4] is 3.41. Besides, the “selectivity index, MCF7” value in [6] worked out at 5.76. The “selectivity index, HepG2” value in series [7] is 1.47.
On to `COc1cc2c(c(O)c1CC=C(C)C)C(=O)[C@H](O)[C@@H](c1ccc(O)cc1)O2` [Compound 9, thonningiol], for which, in the series with MCF-7 cells [1], the “percentages of cells in sub-G0/G1 phase” value is listed as 28.3%, the “Growth (percentage of control) Sub-G0” value came out at 11.6% and the “cell cycle arrest (phase)” value is “Go/G1”. Further, the “increase of caspases 3/7 activity” value in [10] came out at 3.97 fold. Besides, the IC50 in [2] (Homo sapiens, Caco-2, 72 h) is 5.28 ± 0.06 µM. The selectivity ratio at 72 h in [11] was 8.6. Moreover, the “increase in ROS levels” value in the series on MCF-7 cells [3] was 4.46 fold. The IC50 in [9] (setting [12]) was below 10 µM. Besides, in series [4], the IC50 stood at 5.65 ± 0.03 µM and the “selectivity index, DLD-1” value worked out at 8.05. In addition, the “P2: cells with altered MMP” value with MCF-7 cells [5] worked out at 11.2%. Also, in [6], the IC50 stood at 0.36 ± 0.01 µM and the “selectivity index, MCF7” value was 124.59. For the same compound, the “increase of caspase 9 activity” value in the series with caspase 9 in MCF-7 cells turned out to be 2.67 fold. Besides, in [7], the IC50 was determined as 3.88 ± 0.04 µM and the “selectivity index, HepG2” value was found to be 11.72. The compound also displayed an IC50 in series [8] of 45.5 ± 4.17 µM.
For the compound `C=CC(C)(C)c1cc2c(cc1O)OCC1c3ccc(OC)cc3OC21` (centres unmarked) [Compound 13, seputhecarpan D], in the series on MCF-7 cells [1], the “percentages of cells in sub-G0/G1 phase” value is given as 31.1%. Further, in the series on MCF-7 cells [1], the “Growth (percentage of control) Sub-G0” value is 7.6%. Also, in the series on MCF-7 cells [1], the “cell cycle arrest (phase)” value is recorded as “Go/G1”. Also, in series [10], the “increase of caspases 3/7 activity” value stood at 4.66 fold. Besides, the IC50 in series [2] (Homo sapiens, Caco-2, 72 h) is 10.5 ± 0.48 µM; in [9] (3/4 tested cancer cell lines, read-out: IC50 values in 3/4 tested cell lines), below 10 µM; in series [4], 10.8 ± 1.11 µM; in series [6], 9.78 ± 0.55 µM; in [7], 67.7 ± 5.18 µM; in [8], above 118 µM. In addition, the selectivity ratio at 72 h in [11] is above 11.3. Besides, in the series with MCF-7 cells [3], the “increase in ROS levels” value is listed as 3.78 fold. Moreover, the “selectivity index, DLD-1” value in [4] is above 10.97. Besides, in the series on MCF-7 cells [5], the “P2: cells with altered MMP” value was found to be 12.9%. Moreover, the “selectivity index, MCF7” value in series [6] is reported as above 12.10. Also, the “increase of caspase 9 activity” value in the series on caspase 9 in MCF-7 cells is given as 3.47 fold.
